Laboratory results published in article PMC6272622, “Phytochemical Profiling and Evaluation of Pharmacological Activities of Hypericum scabrum L” (Molecules, 2015).
Read-outs that look alike come from different tables or passages of the source.

Experiments:
[1] = molecular target: T1, Protein tyrosine phosphatase 1B (PTP-1B) (Homo sapiens, UniProt P18031); experiment: Protein tyrosine phosphatase 1B (PTP-1B) inhibition assay with pNPP substrate; assay type: biochemical
T1 sequence (P18031 1-435): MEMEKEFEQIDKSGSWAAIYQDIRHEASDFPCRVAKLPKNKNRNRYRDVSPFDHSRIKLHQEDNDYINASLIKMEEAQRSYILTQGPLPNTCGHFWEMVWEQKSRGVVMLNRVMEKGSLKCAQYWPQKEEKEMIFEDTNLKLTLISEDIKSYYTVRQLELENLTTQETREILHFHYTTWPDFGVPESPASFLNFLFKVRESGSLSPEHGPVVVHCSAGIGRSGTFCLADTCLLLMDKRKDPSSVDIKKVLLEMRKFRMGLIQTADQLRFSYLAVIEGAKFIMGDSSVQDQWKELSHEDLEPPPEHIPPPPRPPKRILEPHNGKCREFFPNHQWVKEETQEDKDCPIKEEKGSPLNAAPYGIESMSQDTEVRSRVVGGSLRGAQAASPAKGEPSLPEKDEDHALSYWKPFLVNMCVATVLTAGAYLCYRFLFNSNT
Protocol: Compounds were pre-incubated with the enzyme at room temperature for 5 min. Then, 178 µL of buffer solution (20 mM HEPES, 150 mM NaCl, 1 mM EDTA) was added in 96-well plates. […] After that, 1 µL of test and positive control sample were added. Thereafter, 20 µL of the substrate pNPP (35 mM) was added and mixed for 10 min. The plate was incubated in the dark for 30 min and the reaction was terminated by adding 10 µL of 3 M NaOH. The absorbance was then determined at 405 nm wavelength. […] Inhibition (%) = [(OD405 − OD405 blank)/OD405 blank] × 100. IC50 was calculated from the percentage inhibition values.

[2] = system: Candida albicans ATCC 10231; experiment: Antimicrobial activity, agar well diffusion method; assay type: cell-based; conditions: 37 °C, 24 h
Protocol: (§1) Antimicrobial activity of compounds 1 to 6 and crude extracts 7a, 8a, 9a; 10 to 13 were measured using the agar well diffusion method. Bacterial and fungal pathogens such as S. aureus (ATCC 6538), E. coli (ATCC 11229) and C. albicans (ATCC 10231) were used as indicator strains for this analysis. These microorganisms were aseptically inoculated into appropriate liquid media and incubated at 37 °C. After 16 h, the cells were centrifuged at 6000 rpm for 10 min and then suspended in sterile water. The different cells (1 mL) were added to appropriate agar media (100 mL) prior to plating, and the wells were made using an agar well borer. To these wells, different concentrations of compounds 1 to 6 and the extracts 7a, 8a, 9a; 10 to 13 were added and subsequently incubated at 37 °C for 24 h. Zones of inhibition were estimated by measuring the diameter of the microbial growth inhibition zones. Values were averaged from three independent experiments.

[3] = system: Escherichia coli ATCC 11229; experiment: Antimicrobial activity, agar well diffusion method; assay type: cell-based; conditions: 37 °C, 24 h
Protocol: as §1

[4] = system: Staphylococcus aureus ATCC 6538; experiment: Antimicrobial activity, agar well diffusion method; assay type: cell-based; conditions: 37 °C, 24 h
Protocol: as §1

[5] = DPPH radical scavenging assay; conditions: 37 °C, 30 min, 515 nm; for IC50: pure compounds, read-out: DPPH Scavenging Effects, IC50 Values
Protocol: Radical scavenging assay was determined by a micro plate spectrophotometric method based on the reduction of DPPH according to the previous report. Various dilutions of pure compounds and crude extracts in the concentration range 0.0625 to 1 mM and 0.0625 to 1 mg∙mL^−1, respectively were made. Briefly DPPH solution (100 μL) and pure compound or crude extract in DMSO (100 μL) were added to each well of the micro plate and mixed. The mixture was shaken vigorously and left to stand at 37 °C for 30 min in dark. The absorbance of the solution was then measured at wavelength 515 nm using a micro plate spectrophotometer. Inhibition (%) of free radical (DPPH) was determined as [(Acontrol − Asample)/Acontrol] × 100, where: Acontrol is the absorbance of the control sample containing all reagents except the test sample and Asample is the absorbance of the test sample (pure compound or crude extract). Vitamin C was used as the positive control and tests were carried out in triplicate. The IC50 values were determined for all tested flavonoids, extract and control standard antioxidant.

[6] = pNPP substrate, absorbance at 405 nm

Row | Compound | IC50 [1, 6] | Inhibition Zone Diameter CA [2] | Inhibition Zone Diameter EC [3] | Inhibition Zone Diameter SA [4] | IC50 [5] | DPPH Scavenging Effects; IC50 Values ([5]; crude extracts) | IC50 [1]
1 | O=c1c(O[C@@H]2O[C@H](CO)[C@@H](O)[C@H](O)[C@H]2O)c(-c2ccc(O)c(O)c2)oc2cc(O)cc(O)c12 [Compound 5, Quercetin-3-O-β-D-glucopyranoside] | > 50 µM | n.e. | n.e. | 11 mm | 24.8 ± 1.3 µM | – | –
2 | O=C1O[C@H]([C@@H](O)CO)C(O)=C1O [Vitamin C, reference compound] | – | – | – | – | 30.3 ± 2.4 µM | 5.34 ± 0.4 µg/mL | –
3 | CC1(C)S[C@@H]2[C@H](NC(=O)[C@H](N)c3ccccc3)C(=O)N2[C@H]1C(=O)O [Ampicillin, reference compound] | – | – | 14 mm | 19 mm | – | – | –
4 | C[C@@H]1[C@H](O)[C@@H](C)/C=C/C=C/C=C/C=C/C=C/C=C/C=C/[C@H](O[C@@H]2O[C@H](C)[C@@H](O)[C@H](N)[C@@H]2O)C[C@@H]2O[C@](O)(C[C@@H](O)C[C@@H](O)[C@H](O)CC[C@@H](O)C[C@@H](O)CC(=O)O[C@H]1C)C[C@H](O)[C@H]2C(=O)O [Amphotericin B, reference compound] | – | 15 mm | – | – | – | – | –
5 | O=c1c(O[C@@H]2O[C@@H](CO)[C@H](O)[C@H]2O)c(-c2ccc(O)c(O)c2)oc2cc(O)cc(O)c12 [Compound 3, Quercetin-3-O-α-L-arabinofuranoside] | > 50 µM | n.e. | 5.5 mm | n.e. | 38.3 ± 2 µM | – | –
6 | O=c1c(-c2c(O)cc(O)c3c(=O)cc(-c4ccc(O)cc4)oc23)c(-c2ccc(O)cc2)oc2cc(O)cc(O)c12 [Compound 1, 3-8′′-Bisapigenin] | > 50 µM | n.e. | n.e. | 5.5 mm | > 500 µM | – | –
7 | C[C@@H]1O[C@@H](Oc2c(-c3ccc(O)c(O)c3)oc3cc(O)cc(O)c3c2=O)[C@H](O)[C@H](O)[C@H]1O [Compound 4, Quercetin-3-O-α-L-rhamnoside] | – | 5.5 mm | 8 mm | n.e. | 32.1 ± 1.6 µM | – | > 50 µM
8 | O=c1c(O)c(-c2ccc(O)c(O)c2)oc2cc(O)cc(O)c12 [Compound 2, Quercetin] | – | 6.5 mm | n.e. | 12 mm | 24.9 ± 1.4 µM | – | –
9 | O=c1c(O[C@@H]2O[C@H](CO)[C@H](O)[C@H](O)[C@H]2O)c(-c2ccc(O)c(O)c2)oc2cc(O)cc(O)c12 [Compound 6, Quercetin-3-O-β-D-galactopyranoside] | > 50 µM | n.e. | 6.5 mm | 11 mm | 29.5 ± 1.5 µM | – | –
